Reference: patent publication US6365613B1, “Fungicidal mixtures” (BASF Aktiengesellschaft, priority 1997, dated 2002)

Tested on: Botrytis cinerea
Test: Activity against Botrytis cinerea on bell peppers (fruit disks, protective spray)
Type: in vivo
Conditions: single active ingredient, green bell pepper disks, 4 days at 18° C.
Experimental: Activity against Botrytis cinerea on bell peppers
Disks of green bell peppers were sprayed to runoff point with an aqueous preparation of active ingredient which had been prepared from a stock solution comprising 10% of active compound, 63% of cyclohexanone and 27% of emulsifier. 2 hours after the spray coating had dried on, the fruit disks were inoculated with a spore suspension of Botrytis cinerea containing 1.7×10^6 spores per ml of a 2% strength Biomalz solution. The inoculated fruit disks were subsequently incubated in humid chambers at 18° C. for 4 days. The Botrytis infection on the diseased fruit disks was then evaluated visually.
Evaluation was carried out by determining the infected leaf areas in percent. These percentages were converted into efficacies. The efficacy (E) was calculated as follows using Abbot's formula: […]
α corresponds to the fungal infection of the treated plants in % and β corresponds to the fungal infection of the untreated (control) plants in % An efficacy of 0 means that the infection level of the treated plants corresponds to that of the untreated control plants; an efficacy of 100 means that the treated plants were not infected.
The expected efficacies of the mixtures of the active ingredients were determined using Colby's formula [R. S. Colby, weeds 15 (1967), 20-22] and compared with the observed efficacies.
Colby's formula: E=x+y−x·y/100
E expected efficacy, expressed in % of the untreated control, when using the mixture of the active ingredients A and B at the concentrations a and b x efficacy, expressed in % of the untreated control, when using the active ingredient A at the concentration a y efficacy, expressed in % of the untreated control, when using the active ingredient B at the concentration b

Row | Structure (SMILES) | Efficacy in % of the untreated control (6.3 ppm in the spray liquor) | Efficacy in % of the untreated control (12.5 ppm in the spray liquor) | Efficacy in % of the untreated control (25 ppm in the spray liquor) | Efficacy in % of the untreated control (50 ppm in the spray liquor)
1 | CCCCNC(=O)n1c(NC(=O)OC)nc2ccccc21 [Comp. IIa, methyl 1-(butylcarbamoyl)benzimidazol-2-ylcarbamate, reference compound] | 10% | 20% | – | –
2 | COC(=O)NC(=S)Nc1ccccc1NC(=S)NC(=O)OC [Comp. IIf, dimethyl 4,4′-(o-phenylene)bis(3-thioallophanate), reference compound] | – | 0% | 0% | 20%
3 | CO/N=C(/C(=O)OC)c1ccccc1COc1ccccc1C [Compound Ia] | 20% | 30% | 30% | 50%
4 | CO/N=C(/C(=O)OC)c1ccccc1COc1cc(C)ccc1C [Compound Ic] | – | 50% | 80% | –
